From patent US9445606B2, “Use of 4-hydroxydihydrochalcones and their salts for enhancing an impression of sweetness” (SYMRISE AG, priority 2006, dated 2016)

What was measured:
[1] = Enhancing the impression of sweetness of a solution containing a sweet-tasting substance (expert panel rating), glycerine; type: in vivo; settings: 30 ppm substance, 5%
Procedure: (§1) In order to quantify the enhancement of an impression of sweetness by adding 4-hydroxydihydrochalcones to be used according to the invention, the sweetness of a solution containing a sweet-tasting substance and of samples containing the same amount of sweet-tasting substance and in addition a certain concentration of the 4-hydroxydihydrochalcones of the formula (I) to be used according to the invention was determined by a group of experts (classification 0 [extremely weaklysweet] to 10 [extremely sweet]). Evaluation was performed by calculating the enhancement (in %) of the impression of sweetness from the average values of the ratings for the solution containing the sweet-tasting substance (a) and for the solution containing the sweet-tasting substance and 4-dydroxydihydrochalcones (b).

[2] = Enhancing the impression of sweetness of a solution containing a sweet-tasting substance (expert panel rating), sucrose; type: in vivo; settings: 30 ppm substance, 5%
Procedure: as §1

[3] = Impression of sweetness of a sugar-reduced test solution (5% sucrose + compound against 6% sucrose); type: in vivo
Text: In order to quantify the retention of an impression of sweetness when replacing a proportion of sucrose with a small amount of 4-hydroxydihydrochalcones of the formula (I) being used in accordance with the invention, the sweetness (a) of a solution containing 6 wt. % of sucrose as compared with a solution containing 5 wt. % of sucrose and (b) or (c) of a solution containing 6 wt. % of sucrose as compared with a solution containing 5% of sucrose and a certain concentration of a 4-hydroxydihydrochalcone being used according to the invention was determined by a group of experts (classification 0 [not sweet] to 10 [extremely sweet]). Evaluation was performed by calculating the enhancement (in %) of the impression of sweetness from the average values of the estimates for the solutions of 6% sucrose (second column) and for the solutions containing 5% sucrose and optionally the 4-hydroxydihydrochalcone of the formula (I) being used according to the invention (third column).

[4] = in particular in clear aqueous applications; cited from earlier work

O=C(CCc1ccc(O)cc1)c1c(O)cc(O)cc1O [compound 4, 3-(4-hydroxyphenyl)-1-(2,4,6-trihydroxyphenyl)propan-1-one]
total number of tasters / number of tasters who felt that test solution (b) was sweeter than test solution (a) [1]: 16/11
% enhancement of the impression of sweetness ([1]; (b) with against (a) without): +45%
Impression of sweetness (1-10) b) with ([1]; mean ± standard deviation): 4.4 ± 2.1
total number of tasters / number of tasters who felt that test solution (b) was sweeter than test solution (a) [2]: 16/14
% enhancement of the impression of sweetness ([2]; (b) with against (a) without): +31%
Impression of sweetness (1-10) b) with ([2]; mean ± standard deviation): 7.4 ± 1.4
total number of tasters / number of tasters who felt the 5 wt. % sucrose test solution with substance sweeter than 6 wt. % sucrose ([3]; 5% sucrose + 30 ppm substance): 16/7
% enhancement of the impression of sweetness ([3]; 5% sucrose + 30 ppm substance against 6% sucrose): −4.9%
Impression of sweetness (1-10) ([3]; 5% sucrose + 30 ppm substance, mean ± standard deviation): 6.1 ± 1.4

COc1ccc(C2CC(=O)c3c(O)cc(O)cc3O2)cc1O (stereo not shown) [hesperetin]
solubility [4]: low solubility
